Our source for the EC50, CC50 and Activity values is ChEMBL document CHEMBL5620422, “Design, synthesis, and biological evaluation of a series of new anthraquinone derivatives as anti-ZIKV agents” (Eur J Med Chem, 2023).

The structures appear in SMILES notation. Calls of active or inactive are those of the source. The rule behind the calls is not given here.

As usually defined, the EC50 is the concentration giving half of the maximal effect. Broadly, the CC50 is the concentration that lowers cell viability or growth by half.

Data set [1] concerns Zika virus. The data set is described as follows: Antiviral activity against ZIKV ZG-01 infected in A549 cells preincubated for 1 hr followed by replacement with fresh media containing compound for 48 hrs by crystal violet staining based plaque assay. It is filed as functional, organism-based. As to conditions: ZG-01, A549.
The nature of data set [2]: Cytotoxicity against human A549 cells assessed as reduction in cell viability incubated for 48 hrs by MTT assay. In kind it is toxicity, cell-based. For orientation: Tetrazolium assays rely on reduction of a dye to a coloured formazan, in cell work by metabolically active cells.
The target in data set [3] is NS5 (Zika virus) (UniProt A0A143MHK7). The data set is described as follows: Binding affinity to ZIKV RdRP by SPR assay. On the technique in general: In SPR one partner is held on a chip, and binding of the other changes the refractive index at the surface.
For data set [4], the system named is Porcine reproductive and respiratory syndrome virus. The data set is described as follows: Antiviral activity against Porcine reproductive and respiratory syndrome virus infected in MARC145 cells assessed as reduction in viral replication by microscopic analysis. In kind it is functional, organism-based.

Consider `C[C@]1(O)CC2=C(C[C@@]1(C)O)C(=O)c1c(O)cc(NC3CC3)c(O)c1C2=O`, for which it took 48.1 µM to reach a half-maximal effect in data set [1] (EC50). Further, the CC50 at 48 h in data set [2] is > 50 µM.

As to `C[C@]1(O)CC2=C(C[C@@]1(C)O)C(=O)c1c(O)cc(NCCN3CCCC3)c(O)c1C2=O`, it took 8.4 µM to reach a half-maximal effect in data set [1] (EC50). Further, in data set [2], the CC50 at 48 h was > 50 µM.

For the compound `C[C@]1(O)CC2=C(C[C@@]1(C)O)C(=O)c1c(O)cc(N3CCCC3)c(O)c1C2=O`, the EC50 in data set [1] worked out at 25.6 µM. Further, the CC50 at 48 h in data set [2] was > 50 µM.

The compound `C[C@]1(O)CC2=C(C[C@@]1(C)O)C(=O)c1c(O)cc(NCCC3=CCCCC3)c(O)c1C2=O` returned an EC50 in data set [1] of 5.7 µM. Moreover, the CC50 at 48 h in data set [2] was > 50 µM.

`C[C@]1(O)CC2=C(C[C@@]1(C)O)C(=O)c1c(O)cc(NCCc3ccco3)c(O)c1C2=O` gave an EC50 in data set [1] of 8.1 µM. Besides, the CC50 at 48 h in data set [2] is > 50 µM.

For `C[C@]1(O)CC2=C(C[C@@]1(C)O)C(=O)c1c(O)cc(NCCN3CCOCC3)c(O)c1C2=O`, the EC50 in data set [1] was 24.5 µM. The CC50 at 48 h in data set [2] is > 50 µM.

The compound `C[C@]1(O)CC2=C(C[C@@]1(C)O)C(=O)c1c(O)cc(NCCO)c(O)c1C2=O` came in with an EC50 in data set [1] of 48.4 µM. Besides, in data set [2], the CC50 at 48 h is > 50 µM.

As to `NC(=O)c1ncn([C@@H]2O[C@H](CO)[C@@H](O)[C@H]2O)n1`, in data set [3], the outcome was inactive.

In the case of `C[C@]1(O)CC2=C(C[C@@]1(C)O)C(=O)c1c(O)cc(NCc3ccccc3)c(O)c1C2=O`, the response in data set [1] was half-maximal at 10.3 µM (EC50). The CC50 at 48 h in data set [2] is > 50 µM.

As to `COc1cc(O)c2c(c1)[C@@H](O)[C@H]1C[C@](C)(O)[C@H](O)C[C@@H]1C2=O` [TETRAHYDROALTERSOLANOL C], the EC50 in data set [4] turned out to be 12.1 µM.

In the case of `CCCNc1cc(O)c2c(c1O)C(=O)C1=C(C[C@@](C)(O)[C@@](C)(O)C1)C2=O`, the EC50 in data set [1] came out at 42.6 µM. Further, in data set [2], the CC50 at 48 h is > 50 µM.

For `C[C@]1(O)CC2=C(C[C@@]1(C)O)C(=O)c1c(O)cc(N3CCOCC3)c(O)c1C2=O`, in data set [1], the EC50 was determined as 15.4 µM. Moreover, the CC50 at 48 h in data set [2] was > 50 µM.

Compound `CCNc1cc(O)c2c(c1O)C(=O)C1=C(C[C@@](C)(O)[C@@](C)(O)C1)C2=O` returned an EC50 in data set [1] of 44.2 µM. Further, the CC50 at 48 h in data set [2] is > 50 µM.

In the case of `C[C@]1(O)CC2=C(C[C@@]1(C)O)C(=O)c1c(O)cc(NCc3cccs3)c(O)c1C2=O`, in data set [1], the concentration for a half-maximal effect (EC50) came out at 12.2 µM. The CC50 at 48 h in data set [2] is > 50 µM.

For `C[C@]1(O)CC2=C(C[C@@]1(C)O)C(=O)c1c(O)cc(NC3CCCCC3)c(O)c1C2=O`, the EC50 in data set [1] came to 15.5 µM. Also, the CC50 at 48 h in data set [2] is > 50 µM.

In data set [1], `C[C@]1(O)CC2=C(C[C@@]1(C)O)C(=O)c1c(O)cc(NC3CCC3)c(O)c1C2=O` had an EC50 of 38.4 µM. For the same compound, in data set [2], the CC50 at 48 h was > 50 µM.

For the compound `C[C@]1(O)CC2=C(C[C@@]1(C)O)C(=O)c1c(O)cc(NCCc3cccs3)c(O)c1C2=O`, the EC50 in data set [1] was 7.8 µM. Further, in data set [2], the CC50 at 48 h was > 50 µM.

As to `CCC(C)Nc1cc(O)c2c(c1O)C(=O)C1=C(C[C@@](C)(O)[C@@](C)(O)C1)C2=O` (some centres undefined), the EC50 in data set [1] was > 50 µM. Also, in data set [2], the CC50 at 48 h was > 50 µM.

With `C[C@]1(O)CC2=C(C[C@@]1(C)O)C(=O)c1c(O)cc(NCCN3CCCCC3)c(O)c1C2=O`, a half-maximal response in data set [1] (EC50) required 8.7 µM. In data set [2], the CC50 at 48 h was > 50 µM.

`C[C@]1(O)CC2=C(C[C@@]1(C)O)C(=O)c1c(O)cc(NCCc3ccccc3)c(O)c1C2=O` displayed an EC50 in data set [1] of 4.2 µM. In addition, in data set [2], the CC50 at 48 h is > 50 µM.

In data set [1], `C[C@]1(O)CC2=C(C[C@@]1(C)O)C(=O)c1c(O)cc(NCc3ccco3)c(O)c1C2=O` returned an EC50 of 16.5 µM. Also, in data set [2], the CC50 at 48 h was > 50 µM.

In data set [1], `C[C@]1(O)CC2=C(C[C@@]1(C)O)C(=O)c1c(O)cc(NCC3CCCO3)c(O)c1C2=O` (some centres undefined) had an EC50 of 36.1 µM. Further, the CC50 at 48 h in data set [2] is > 50 µM.

In turn, `C[C@]1(O)CC2=C(C[C@@]1(C)O)C(=O)c1c(O)cc(NC3CCCC3)c(O)c1C2=O` gave an EC50 in data set [1] of 17.1 µM. Moreover, the CC50 at 48 h in data set [2] is > 50 µM.
